This note sets out measurements from ChEMBL document CHEMBL3611970, “Synthesis and evaluation of isatin-β-thiosemicarbazones as novel agents against antibiotic-resistant Gram-positive bacterial species” (2015).

Values after ≈ are worked out from the molar mass of the structure shown. Some results are limits rather than exact numbers.

Type in all cases: functional
The subject of assay [1] is Staphylococcus aureus. Briefly: Antimicrobial activity against methicillin-resistant Staphylococcus aureus 8-24 clinical isolate after 16 hrs by broth microdilution method. Conditions: 8-24, 16 h.
Assay [2] deals with Staphylococcus aureus. Briefly: Antimicrobial activity against methicillin-resistant Staphylococcus aureus 6-42 clinical isolate after 16 hrs by broth microdilution method. Conditions: 6-42, 16 h. (Broth dilution looks for growth in wells or tubes with falling amounts of substance.)
A further assay relates to Pseudomonas aeruginosa. Briefly: Antimicrobial activity against Pseudomonas aeruginosa PAO1 after 16 hrs by broth microdilution method. Conditions: PAO1, 16 h.
Assay [3] has as its system Staphylococcus aureus. The assay is described as follows: Antimicrobial activity against methicillin-resistant Staphylococcus aureus 309-7 clinical isolate after 16 hrs by broth microdilution method. Conditions: 309-7, 16 h.
For assay [4], the system named is Staphylococcus aureus. Briefly: Antimicrobial activity against methicillin-resistant Staphylococcus aureus 8-21 clinical isolate after 16 hrs by broth microdilution method. Conditions: 8-21, 16 h.
Another assay deals with Klebsiella pneumoniae. The assay is described as follows: Antimicrobial activity against Klebsiella pneumoniae KP-249 clinical isolate after 16 hrs by broth microdilution method. Conditions: KP-249, 16 h.
Assay [5] deals with Staphylococcus aureus. The assay is described as follows: Antimicrobial activity against methicillin-resistant Staphylococcus aureus 309-1 clinical isolate after 16 hrs by broth microdilution method. Conditions: 309-1, 16 h.
Assay [6] deals with Staphylococcus aureus. Briefly: Antimicrobial activity against methicillin-resistant Staphylococcus aureus 309-3 clinical isolate after 16 hrs by broth microdilution method. Conditions: 309-3, 16 h.
Assay [7] deals with Staphylococcus aureus. Briefly: Antimicrobial activity against methicillin-resistant Staphylococcus aureus 309-8 clinical isolate after 16 hrs by broth microdilution method. Conditions: 309-8, 16 h.
Assay [8] concerns Staphylococcus aureus. Briefly: Antimicrobial activity against methicillin-resistant Staphylococcus aureus 309-6 clinical isolate after 16 hrs by broth microdilution method. Conditions: 309-6, 16 h.
The test system of assay [9] is Staphylococcus aureus. Briefly: Antimicrobial activity against methicillin-resistant Staphylococcus aureus Chaoyang clinical isolate after 16 hrs by broth microdilution method.
The next assay relates to Bacillus spizizenii. Briefly: Antimicrobial activity against Bacillus subtilis ATCC 6633 after 16 hrs by broth microdilution method. Conditions: ATCC 6633, 16 h.
Assay [10] relates to Enterococcus faecalis. The assay is described as follows: Antimicrobial activity against Enterococcus faecalis VRE-309 after 16 hrs by broth microdilution method. Conditions: VRE-309, 16 h.
Assay [11] has as its system Staphylococcus aureus. Briefly: Antimicrobial activity against methicillin-resistant Staphylococcus aureus 6281 clinical isolate after 16 hrs by broth microdilution method. Conditions: Staphylococcus aureus, 6281, 16 h.
Assay [12] concerns Enterococcus faecalis. The assay is described as follows: Antimicrobial activity against vancomycin-susceptible Enterococcus faecalis after 16 hrs by broth microdilution method.
For assay [13], the system named is Staphylococcus aureus. The assay is described as follows: Antimicrobial activity against Staphylococcus aureus ATCC 6538 after 16 hrs by broth microdilution method. Conditions: ATCC 6538, 16 h.
Assay [14] concerns Staphylococcus aureus. The assay is described as follows: Antimicrobial activity against methicillin-resistant Staphylococcus aureus 309-4 clinical isolate after 16 hrs by broth microdilution method. Conditions: 309-4, 16 h.

As a reminder, the MIC is the least concentration at which growth counts as inhibited. Regarding `COc1cccc(NC(=S)N/N=C2\C(=O)Nc3c(Br)cccc32)c1`, the minimum inhibitory concentration (MIC) in the assay on Staphylococcus aureus [1] was 1.56 µg/mL (≈ 3.85 µM); in the assay with Staphylococcus aureus [2], 1.56 µg/mL (≈ 3.85 µM); with Pseudomonas aeruginosa, above 100 µg/mL; against Staphylococcus aureus [3], 0.78 µg/mL (≈ 1.92 µM); in the assay with Staphylococcus aureus [4], 1.56 µg/mL (≈ 3.85 µM); in the assay with Klebsiella pneumoniae, above 100 µg/mL. For the same molecule, the MIC is 1.56 µg/mL (≈ 3.85 µM) with Staphylococcus aureus [5]; 3.12 µg/mL (≈ 7.7 µM) in the assay with Staphylococcus aureus [6]; 3.12 µg/mL (≈ 7.7 µM) with Staphylococcus aureus [7]; 6.25 µg/mL (≈ 15.4 µM) against Staphylococcus aureus [8]; 0.78 µg/mL (≈ 1.92 µM) in the assay on Staphylococcus aureus [9]; at most 0.78 µg/mL with Bacillus spizizenii. The MIC was above 100 µg/mL in the assay on Enterococcus faecalis [10]; 6.25 µg/mL (≈ 15.4 µM) in the assay on Staphylococcus aureus [11]; above 100 µg/mL in the assay with Enterococcus faecalis [12]; 6.25 µg/mL (≈ 15.4 µM) in the assay with Staphylococcus aureus [13]; 1.56 µg/mL (≈ 3.85 µM) against Staphylococcus aureus [14].
Regarding `O=C1Nc2c(Cl)cccc2/C1=N/NC(=S)Nc1cccc(Cl)c1`, the MIC in the assay on Staphylococcus aureus [1] is 1.56 µg/mL (≈ 4.27 µM); against Staphylococcus aureus [2], 0.78 µg/mL (≈ 2.14 µM); with Pseudomonas aeruginosa it was above 100 µg/mL; with Staphylococcus aureus [3] it was 0.78 µg/mL (≈ 2.14 µM); in the assay on Staphylococcus aureus [4], 1.56 µg/mL (≈ 4.27 µM); against Klebsiella pneumoniae it was above 100 µg/mL. In addition, the MIC is 1.56 µg/mL (≈ 4.27 µM) against Staphylococcus aureus [5]; 1.56 µg/mL (≈ 4.27 µM) in the assay with Staphylococcus aureus [6]; 1.56 µg/mL (≈ 4.27 µM) in the assay on Staphylococcus aureus [7]; 3.12 µg/mL (≈ 8.54 µM) against Staphylococcus aureus [8]; 0.78 µg/mL (≈ 2.14 µM) against Staphylococcus aureus [9]; at most 0.78 µg/mL in the assay on Bacillus spizizenii. Also, the MIC turned out to be 1.56 µg/mL (≈ 4.27 µM) with Enterococcus faecalis [10]; 1.56 µg/mL (≈ 4.27 µM) in the assay with Staphylococcus aureus [11]; 3.12 µg/mL (≈ 8.54 µM) in the assay with Enterococcus faecalis [12]; 1.56 µg/mL (≈ 4.27 µM) with Staphylococcus aureus [13]; 0.78 µg/mL (≈ 2.14 µM) against Staphylococcus aureus [14].
Regarding `COc1cccc(NC(=S)N/N=C2\C(=O)Nc3c(Cl)cccc32)c1`, the MIC is 1.56 µg/mL (≈ 4.32 µM) in the assay on Staphylococcus aureus [1]; 0.78 µg/mL (≈ 2.16 µM) against Staphylococcus aureus [2]; above 100 µg/mL in the assay on Pseudomonas aeruginosa; 0.78 µg/mL (≈ 2.16 µM) in the assay with Staphylococcus aureus [3]; 1.56 µg/mL (≈ 4.32 µM) with Staphylococcus aureus [4]; above 100 µg/mL against Klebsiella pneumoniae. For the same molecule, the MIC with Staphylococcus aureus [5] was 1.56 µg/mL (≈ 4.32 µM); in the assay on Staphylococcus aureus [6], 1.56 µg/mL (≈ 4.32 µM); in the assay with Staphylococcus aureus [7] it was 1.56 µg/mL (≈ 4.32 µM); in the assay with Staphylococcus aureus [8] it was 3.12 µg/mL (≈ 8.65 µM); against Staphylococcus aureus [9] it was 0.78 µg/mL (≈ 2.16 µM); in the assay on Bacillus spizizenii it was at most 0.78 µg/mL. The MIC is above 100 µg/mL against Enterococcus faecalis [10]; 6.25 µg/mL (≈ 17.3 µM) in the assay with Staphylococcus aureus [11]; above 100 µg/mL with Enterococcus faecalis [12]; 3.12 µg/mL (≈ 8.65 µM) with Staphylococcus aureus [13]; 0.78 µg/mL (≈ 2.16 µM) against Staphylococcus aureus [14].
For `O=C1Nc2c(F)cccc2/C1=N/NC(=S)Nc1cccc(Cl)c1`, the MIC is 0.78 µg/mL (≈ 2.24 µM) in the assay on Staphylococcus aureus [1]; 0.39 µg/mL (≈ 1.12 µM) with Staphylococcus aureus [2]; above 100 µg/mL in the assay on Pseudomonas aeruginosa; 0.39 µg/mL (≈ 1.12 µM) with Staphylococcus aureus [3]; 0.78 µg/mL (≈ 2.24 µM) in the assay on Staphylococcus aureus [4]; above 100 µg/mL in the assay with Klebsiella pneumoniae. For the same molecule, the MIC is 0.78 µg/mL (≈ 2.24 µM) in the assay with Staphylococcus aureus [5]; 0.78 µg/mL (≈ 2.24 µM) in the assay on Staphylococcus aureus [6]; 0.78 µg/mL (≈ 2.24 µM) in the assay with Staphylococcus aureus [7]; 1.56 µg/mL (≈ 4.47 µM) in the assay on Staphylococcus aureus [8]; 0.39 µg/mL (≈ 1.12 µM) with Staphylococcus aureus [9]; at most 0.78 µg/mL in the assay on Bacillus spizizenii. The minimum inhibitory concentration (MIC) against Enterococcus faecalis [10] stood at 1.56 µg/mL (≈ 4.47 µM); against Staphylococcus aureus [11], 1.56 µg/mL (≈ 4.47 µM); against Enterococcus faecalis [12] it was 1.56 µg/mL (≈ 4.47 µM); against Staphylococcus aureus [13], 0.78 µg/mL (≈ 2.24 µM); against Staphylococcus aureus [14], 0.78 µg/mL (≈ 2.24 µM).
As to `COc1ccc(NC(=S)N/N=C2\C(=O)Nc3c(F)cccc32)cc1`, the minimal inhibitory concentration (MIC) against Staphylococcus aureus [1] was 3.12 µg/mL (≈ 9.06 µM); against Staphylococcus aureus [2], 3.12 µg/mL (≈ 9.06 µM); against Pseudomonas aeruginosa, above 100 µg/mL; with Staphylococcus aureus [3], 1.56 µg/mL (≈ 4.53 µM); with Staphylococcus aureus [4] it was 3.12 µg/mL (≈ 9.06 µM); against Klebsiella pneumoniae it was above 100 µg/mL. The MIC against Staphylococcus aureus [5] came to 3.12 µg/mL (≈ 9.06 µM); with Staphylococcus aureus [6], 3.12 µg/mL (≈ 9.06 µM); in the assay on Staphylococcus aureus [7], 3.12 µg/mL (≈ 9.06 µM); with Staphylococcus aureus [8], 3.12 µg/mL (≈ 9.06 µM); in the assay with Staphylococcus aureus [9], 1.56 µg/mL (≈ 4.53 µM); with Bacillus spizizenii, 1.56 µg/mL (≈ 4.53 µM). The minimal inhibitory concentration (MIC) in the assay on Enterococcus faecalis [10] is above 100 µg/mL; in the assay with Staphylococcus aureus [11], 6.25 µg/mL (≈ 18.1 µM); against Enterococcus faecalis [12], above 100 µg/mL; against Staphylococcus aureus [13] it was 3.12 µg/mL (≈ 9.06 µM); with Staphylococcus aureus [14], 3.12 µg/mL (≈ 9.06 µM).
Turning to `O=C1Nc2c(Cl)cccc2/C1=N/NC(=S)Nc1cccc(F)c1`, the MIC was 1.56 µg/mL (≈ 4.47 µM) in the assay on Staphylococcus aureus [1]; 0.78 µg/mL (≈ 2.24 µM) against Staphylococcus aureus [2]; above 100 µg/mL against Pseudomonas aeruginosa; 0.78 µg/mL (≈ 2.24 µM) in the assay on Staphylococcus aureus [3]; 1.56 µg/mL (≈ 4.47 µM) in the assay with Staphylococcus aureus [4]; above 100 µg/mL in the assay with Klebsiella pneumoniae. Further, the MIC was 1.56 µg/mL (≈ 4.47 µM) in the assay on Staphylococcus aureus [5]; 1.56 µg/mL (≈ 4.47 µM) against Staphylococcus aureus [6]; 1.56 µg/mL (≈ 4.47 µM) with Staphylococcus aureus [7]; 1.56 µg/mL (≈ 4.47 µM) against Staphylococcus aureus [8]; 0.39 µg/mL (≈ 1.12 µM) against Staphylococcus aureus [9]; at most 0.78 µg/mL against Bacillus spizizenii. The MIC amounted to 1.56 µg/mL (≈ 4.47 µM) in the assay with Enterococcus faecalis [10]; 3.12 µg/mL (≈ 8.95 µM) in the assay with Staphylococcus aureus [11]; 3.12 µg/mL (≈ 8.95 µM) with Enterococcus faecalis [12]; 1.56 µg/mL (≈ 4.47 µM) in the assay on Staphylococcus aureus [13]; 0.78 µg/mL (≈ 2.24 µM) against Staphylococcus aureus [14].
